Values quoted from earlier work as cited in patent US8895779B2 (BioAmber Inc., priority 2010, dated 2014).

Conditions: Table 1, Run 1, acid charged

pKa1: 4.43
Structure (SMILES): O=C(O)CCCCC(=O)O [AA, adipic acid]
